Results published in PubChem BioAssay (NCI).
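GI50: concentration for 50% inhibition of growth. Definition used: TGI = concentration required for complete inhibition of growth.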

Columns and labels:
Test in all cases: NCI-60 cell line screen, 384-well format
MOLT-4 leukemia = system: MOLT-4 leukemia
HOP-62 NSCLC = system: HOP-62 NSCLC
HT29 colon = system: HT29 colon
U251 glioblastoma = system: U251 glioblastoma
CAKI-1 renal = system: CAKI-1 renal
MDA-MB-468 breast = system: MDA-MB-468 breast
K-562 leukemia = system: K-562 leukemia
NCI-H23 lung = system: NCI-H23 lung
NCI-H226 lung = system: NCI-H226 lung
OVCAR-5 ovarian = system: OVCAR-5 ovarian
RPMI-8226 leukemia = system: RPMI-8226 leukemia
HCT-15 colon = system: HCT-15 colon
UO-31 renal = system: UO-31 renal

## C1=C/COCc2cc(ccc2OCCN2CCCC2)Nc2nccc(n2)-c2cccc(c2)COC/1
MOLT-4 leukemia
  GI50: 563 nM
  TGI: 1290 nM
HOP-62 NSCLC
  GI50: 1400 nM
  TGI: 3030 nM
HT29 colon
  GI50: 1340 nM
  TGI: 2670 nM
U251 glioblastoma
  GI50: 1540 nM
  TGI: 3290 nM
CAKI-1 renal
  GI50: 428 nM
  TGI: 1710 nM
MDA-MB-468 breast
  GI50: 1660 nM
  TGI: 3030 nM
K-562 leukemia
  GI50: 789 nM
  TGI: 2140 nM
NCI-H23 lung
  GI50: 945 nM
  TGI: 2250 nM
NCI-H226 lung
  GI50: 1140 nM
  TGI: 2600 nM
OVCAR-5 ovarian
  GI50: 778 nM
  TGI: 2640 nM
RPMI-8226 leukemia
  GI50: 1660 nM
  TGI: 3030 nM
HCT-15 colon
  GI50: 802 nM
  TGI: 2310 nM
UO-31 renal
  GI50: 1470 nM
  TGI: 3190 nM
